According to US8288424B2, “Substituted tetrahydroimidazopyridine compounds and the use thereof in the treatment of pain and other conditions” (Gruenenthal GmbH, priority 2008, dated 2012):

Each compound was assayed against T1, KCNQ2/3 channels (Homo sapiens, UniProt O43525+O43526) (assay: Fluorescence assay using a voltage-sensitive dye). Conditions: 10 μmol test substance; CHO-K1 cells expressing KCNQ2/3 channels; agonistic activity; read-out: % Stimulation [10 μmol] Average.
T1 construct: expressed in transfected cells; host or cells: CHO-K1
Assay type: cell-based
Procedure, shortened: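 CHO-K1 cells expressing KCNQ2/3 loaded with membrane-potential dye in ES buffer (1 mM KCl, pH 7.4), compound 30 min at room temperature, then KCl added (final 92 mM). Fluorescence (ex 525/em 560 nm) read before (F1) and at peak after (F2) KCl; agonism from F2/F1 change versus buffer controls, EC50 calculated.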

Compound | activation at 10 µM [%]
Cc1cc(C2CCc3nc(C(=O)N4CCN(Cc5ccccc5)CC4)cn3C2)ccc1F (centres unmarked) [Compound 80, (4-Benzylpiperazin-1-yl)(6-(4-fluoro-3-methylphenyl)-5,6,7,8-tetrahydroimidazo[1,2-a]pyridin-2-yl)methanone] | 33.1
O=C(c1cn2c(n1)CCC(c1ccc(OCc3ccccc3)cc1)C2)N1CCN(c2cccc(C(F)(F)F)c2)CC1 (centres unmarked) [Compound 82, (6-(4-(Benzyloxy)phenyl)-5,6,7,8-tetrahydroimidazo[1,2-a]pyridin-2-yl)(4-(3-(trifluoromethyl)phenyl)piperazin-1-yl)methanone] | 32.7
Cc1cc(C2CCc3nc(C(=O)N4CC5(C)CC4CC(C)(C)C5)cn3C2)ccc1F (centres unmarked) [Compound 84, (6-(4-Fluoro-3-methylphenyl)-5,6,7,8-tetrahydroimidazo[1,2-a]pyridin-2-yl)(1,3,3-trimethyl-6-azabicyclo[3.2.1]octan-6-yl)methanone] | 37.9
Cc1cc(C2CCc3nc(C(=O)NCCC4CCCCC4)cn3C2)ccc1F (centres unmarked) [Compound 88, N-(2-Cyclohexylethyl)-6-(4-fluoro-3-methylphenyl)-5,6,7,8-tetrahydroimidazo[1,2-a]pyridine-2-carboxamide] | 47.9

Continued, values first:

activation at 10 µM [%] | Compound
120 | Cc1cc(C2CCc3nc(C(=O)N4CCC(c5cccc(C(F)(F)F)c5)CC4)cn3C2)ccc1F (centres unmarked) [Compound 85, (6-(4-Fluoro-3-methylphenyl)-5,6,7,8-tetrahydroimidazo[1,2-a]pyridin-2-yl)(4-(3-(trifluoromethyl)phenyl)piperidin-1-yl)methanone]
48.4 | Cc1cc(C2CCc3nc(C(=O)N(C)C(C)CCc4cccc(C(F)(F)F)c4)cn3C2)ccc1F (centres unmarked) [Compound 87, 6-(4-Fluoro-3-methylphenyl)-N-methyl-N-(4-(3-(trifluoromethyl)phenyl)butan-2-yl)-5,6,7,8-tetrahydroimidazo[1,2-a]pyridine-2-carboxamide]

Same assay, conditions: CHO-K1 cells expressing KCNQ2/3 channels; agonistic activity

EC50 [µM] | Compound
6.5 | Cc1cc(C2CCc3nc(C(=O)N4CCN(c5cccc(F)c5)CC4)cn3C2)ccc1F (centres unmarked) [Compound 83, (6-(4-Fluoro-3-methylphenyl)-5,6,7,8-tetrahydroimidazo[1,2-a]pyridin-2-yl)(4-(3-fluorophenyl)piperazin-1-yl)methanone]
1.2 | Cc1cc(C2CCc3nc(C(=O)NC(C)CCc4cccc(C(F)(F)F)c4)cn3C2)ccc1F (centres unmarked) [Compound 86, 6-(4-Fluoro-3-methylphenyl)-N-(4-(3-(trifluoromethyl)phenyl)butan-2-yl)-5,6,7,8-tetrahydroimidazo[1,2-a]pyridine-2-carboxamide]
